According to ChEMBL document CHEMBL1201862, “PubChem BioAssay data set” (2004):
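Growth conditions: 96-well plates. Treatment: test compound, 48 hours, 5 concentrations. Analysis: linear interpolation between bracketing concentrations; unreached endpoints set to highest concentration. At the GI50, growth is halved.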 Calls of active or inactive are those of the source. Rule as the data show it: active = GI50 up to about 1.1 µM and inactive = higher.

How the values were obtained:
Test in all cases: inhibition of tumour cell growth, NCI panel, 48 h
[1] = tested on: SW-620
[2] = tested on: EKVX
[3] = tested on: RXF 393
[4] = tested on: OVCAR-4
[5] = tested on: MOLT-4
[6] = tested on: SK-OV-3
[7] = tested on: Hs-578T
[8] = tested on: SK-MEL-28
[9] = tested on: BT-549
[10] = tested on: HCT-116
[11] = tested on: HCC 2998
[12] = tested on: RPMI-8226
[13] = tested on: SK-MEL-2
[14] = tested on: OVCAR-5
[15] = tested on: NCI-H23
[16] = tested on: MDA-N
[17] = tested on: COLO 205
[18] = tested on: OVCAR-3
[19] = tested on: K562
[20] = tested on: UACC-257

Measured: GI50

Cc1cc2c(c(C(=O)NCC(=O)O)c1)Oc1c(cc(C)cc1C(=O)NCC(=O)O)S2
inactive: [1] > 100 µM | [2] > 100 µM | [3] > 100 µM | [4] > 100 µM | [5] > 100 µM | [6] > 100 µM | [7] > 100 µM | [8] > 100 µM | [9] > 100 µM | [10] > 100 µM | [11] > 100 µM | [12] > 100 µM | [13] > 100 µM | [14] > 100 µM | [15] > 100 µM | [16] > 100 µM | [17] > 100 µM | [18] > 100 µM | [19] > 100 µM | [20] > 100 µM
